Columns and labels:
AMPK phosphorylation = AMPK phosphorylation activity in mouse adipocytes (Western blot); type: cell-based; conditions: 3T3-L1, 10 μM, 24 hours, Western blot; APN5 = 1.0
Experimental: There were confirmed effects of the peptoid derivative of the present disclosure on the expression and receptor activity of adiponectin in mouse adipocytes as a main adiponectin production site. A mouse adipocyte cell line 3T3-L1 was treated with each of the peptoid derivatives of the present disclosure at a concentration of 10 μM and cultured for 24 hours, and then cells were obtained. Thereafter, the protein was extracted and the effect of adiponectin on AMPK phosphorylation, which was responsible for the main downstream signaling, was confirmed by Western blot.

CYP2C9 = CYP2C9 (Homo sapiens, UniProt P11712); experiment: CYP inhibition assay, CYP2C9; conditions: human liver microsomes 0.25 mg/ml, 10 μM, 15 minutes
Sequence of CYP2C9 (P11712 whole entry): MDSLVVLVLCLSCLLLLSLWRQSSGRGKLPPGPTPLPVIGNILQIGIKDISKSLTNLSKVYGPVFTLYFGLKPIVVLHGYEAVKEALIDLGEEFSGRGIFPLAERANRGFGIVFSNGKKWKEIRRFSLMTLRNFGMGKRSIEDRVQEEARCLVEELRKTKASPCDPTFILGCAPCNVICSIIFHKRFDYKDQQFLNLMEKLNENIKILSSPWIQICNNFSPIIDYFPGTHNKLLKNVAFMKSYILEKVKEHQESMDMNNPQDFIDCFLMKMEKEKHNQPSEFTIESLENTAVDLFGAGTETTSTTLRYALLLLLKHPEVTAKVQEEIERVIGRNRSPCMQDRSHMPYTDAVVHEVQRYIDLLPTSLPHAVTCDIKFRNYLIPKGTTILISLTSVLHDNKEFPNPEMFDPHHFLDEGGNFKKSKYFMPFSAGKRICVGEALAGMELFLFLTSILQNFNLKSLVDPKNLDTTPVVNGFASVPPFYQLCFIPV
Experimental: (§1) Metabolites of each CYP isoenzyme indicator drug produced through the reaction were analyzed by LC-MS/MS using the Shimadzu Nexera XR system and TSQ vantage (Thermo).

CYP2C19 = CYP2C19 (Homo sapiens, UniProt P33261); experiment: CYP inhibition assay, CYP2C19; conditions: human liver microsomes 0.25 mg/ml, 10 μM, 15 minutes
Sequence of CYP2C19 (P33261 whole entry): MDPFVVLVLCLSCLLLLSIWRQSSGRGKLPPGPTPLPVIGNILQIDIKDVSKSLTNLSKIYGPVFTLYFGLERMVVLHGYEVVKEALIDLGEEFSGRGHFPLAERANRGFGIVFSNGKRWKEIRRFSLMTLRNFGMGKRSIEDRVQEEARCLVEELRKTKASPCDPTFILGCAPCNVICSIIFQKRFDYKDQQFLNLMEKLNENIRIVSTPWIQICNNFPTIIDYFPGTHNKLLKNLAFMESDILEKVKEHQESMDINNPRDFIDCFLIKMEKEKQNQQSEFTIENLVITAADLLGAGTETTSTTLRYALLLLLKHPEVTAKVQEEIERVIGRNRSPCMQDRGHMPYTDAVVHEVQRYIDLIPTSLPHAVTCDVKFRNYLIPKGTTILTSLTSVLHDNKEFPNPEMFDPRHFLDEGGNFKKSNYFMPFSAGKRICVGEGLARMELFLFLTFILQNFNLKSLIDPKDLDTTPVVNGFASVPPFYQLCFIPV
Experimental: as §1

Solubility test = conditions: test buffer pH 7.4, DMSO test standard solution, room temperature 24 hours, n=3
Experimental: A PRISMA HT solution was diluted in distilled water at a ratio of 1:40, and then used as a test buffer by adjusting the pH to 7.4.
10 mL of the prepared test material was diluted in 190 μL of isopropyl alcohol and prepared. In addition, 75 mL of the test solution and 70 mL of isopropyl alcohol were mixed to be used as a blank sample, and 5 mL of the test material diluted in isopropyl alcohol was added to the blank sample. After the diluted sample was mixed, the absorbance was measured and used as an initial test value. […] Thereafter, the precipitate was removed from the sample using a filter plate, 74 mL of the filtered sample was added with 75 mL of isopropyl alcohol, and then the absorbance was measured and used as the sample value.
The solubility value of the test material was analyzed using a msol Explore (Solubility explorer program) after measuring the absorbance of each sample through a microplate reader. The average and standard deviation of the experimental values (n=3) repeated three times were calculated using the Excel program.

[1] = Plasma stability test, rat plasma; conditions: 1 μM, 37° C.
Experimental: (§2) The peptoid derivative of the present disclosure was added at a concentration of 1 μM to two types of plasma (human, rat), placed in each tube, and then cultured at 37° C. for time of 0, 30, 60, 120, and 240 minutes. The tube containing plasma was taken out every time, added with an acetonitrile solution containing an internal standard material (chlorpropamide), vortexed for 5 minutes, and centrifuged for 5 minutes (14,000 rpm, 4° C.). Thereafter, the plasma stability of the peptoid derivative was evaluated by injecting the supernatant into an LC-MS/MS system and analyzing the drug at each time period. At this time, Procaine and Enalapril were used as reference materials for accuracy during a general plasma stability test.
(§3) After the reaction, the amount of drug remaining in each tube was analyzed by LC-MS/MS using Shimadzu Nexera XR system and TSQ vantage (Thermo). The HPLC column was used with a Luna C18 column (2.0×50 mm, 3 μm particle size; Phenomenex, US), and the mobile phase was distilled water (A) containing 0.1% formic acid and acetonitrile (B) containing 0.1% formic acid. Data analysis was performed using Xcalibur (version 1.6.1). In the result analysis, the plasma stability of each peptoid derivative was expressed as % remaining for each time period for the sample without culture.

[2] = Plasma stability test, human plasma; conditions: 1 μM, 37° C.
Experimental: as §2, §3

[3] = Metabolic stability test, rat liver microsomes; conditions: rat liver microsomes 0.5 mg/ml, 1 μM, NADPH, 37° C.
Experimental: (§4) Three types of liver microsomes (Human, Rat, Mouse, 0.5 mg/ml), a 0.1 M phosphate buffer solution (pH 7.4), and the peptoid derivative of the present disclosure were added at a concentration of 1 μM and pre-cultured at 37° C. for 5 minutes, and then added with an NADPH Regeneration system solution and cultured at 37° C. for 30 minutes. Thereafter, to terminate the reaction, the mixture was added with an acetonitrile solution containing an internal standard material (chlorpropamide), centrifuged for 5 minutes (14,000 rpm, 4° C.), and then the supernatant was injected into the LC-MS/MS system to analyze a substrate drug, and thus metabolic stability was evaluated.
(§5) The amount of substrate remaining through the reaction was analyzed by LC-MS/MS using Agilent 1290 infinity series pump system (Agilent, USA) and Triple Quad 5500 LC-MS/MS system (Applied Biosystems, USA). The HPLC column was used with a Kinetex C18 column (2.1×100 mm, 1.7 μm particle size; Phenomenex, USA), and the mobile phase was distilled water (A) containing 0.1% formic acid and acetonitrile (B) containing 0.1% formic acid. TurboSpray Ionization was used as an ion source for MS/MS, and a triple quadruple type was used as a mass spectrometer. The produced metabolites were quantified using a multiple reaction monitoring (MRM) quantitative mode, and data analysis was performed using Analyst software (version 1.6.1).

[4] = Metabolic stability test, human liver microsomes; conditions: human liver microsomes 0.5 mg/ml, 1 μM, NADPH, 37° C.
Experimental: as §4
The HPLC column was used with a Kinetex C18 column (2.1×100 mm, 1.7 μm particle size; Phenomenex, USA), and the mobile phase was distilled water (A) containing 0.1% formic acid and acetonitrile (B) containing 0.1% formic acid. TurboSpray Ionization was used as an ion source for MS/MS, and a triple quadruple type was used as a mass spectrometer. The produced metabolites were quantified using a multiple reaction monitoring (MRM) quantitative mode, and data analysis was performed using Analyst software (version 1.6.1).

[5] = Metabolic stability test, mouse liver microsomes; conditions: mouse liver microsomes 0.5 mg/ml, 1 μM, NADPH, 37° C.
Experimental: as §4, §5

CYP1A2 = molecular target: T1, CYP1A2 (Homo sapiens, UniProt P05177); experiment: CYP inhibition assay, CYP1A2; conditions: human liver microsomes 0.25 mg/ml, 10 μM, 15 minutes
T1 sequence (P05177 1-516): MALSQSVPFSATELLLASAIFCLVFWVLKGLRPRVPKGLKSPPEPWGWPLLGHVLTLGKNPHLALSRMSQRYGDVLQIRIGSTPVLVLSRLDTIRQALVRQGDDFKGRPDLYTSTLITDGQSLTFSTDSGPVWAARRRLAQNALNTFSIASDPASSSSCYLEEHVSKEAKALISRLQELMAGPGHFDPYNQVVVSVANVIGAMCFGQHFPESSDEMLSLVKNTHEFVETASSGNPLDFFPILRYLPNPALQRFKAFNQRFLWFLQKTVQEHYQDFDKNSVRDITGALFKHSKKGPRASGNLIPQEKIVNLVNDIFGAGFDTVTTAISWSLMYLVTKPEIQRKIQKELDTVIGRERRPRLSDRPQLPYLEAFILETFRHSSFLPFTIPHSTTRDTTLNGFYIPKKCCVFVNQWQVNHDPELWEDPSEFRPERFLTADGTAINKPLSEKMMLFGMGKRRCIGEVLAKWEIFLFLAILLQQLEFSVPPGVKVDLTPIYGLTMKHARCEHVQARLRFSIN
Experimental: as §1

CYP2D6 = CYP2D6 (Homo sapiens, UniProt P10635); experiment: CYP inhibition assay, CYP2D6; conditions: human liver microsomes 0.25 mg/ml, 10 μM, 15 minutes
Sequence of CYP2D6 (P10635 whole entry): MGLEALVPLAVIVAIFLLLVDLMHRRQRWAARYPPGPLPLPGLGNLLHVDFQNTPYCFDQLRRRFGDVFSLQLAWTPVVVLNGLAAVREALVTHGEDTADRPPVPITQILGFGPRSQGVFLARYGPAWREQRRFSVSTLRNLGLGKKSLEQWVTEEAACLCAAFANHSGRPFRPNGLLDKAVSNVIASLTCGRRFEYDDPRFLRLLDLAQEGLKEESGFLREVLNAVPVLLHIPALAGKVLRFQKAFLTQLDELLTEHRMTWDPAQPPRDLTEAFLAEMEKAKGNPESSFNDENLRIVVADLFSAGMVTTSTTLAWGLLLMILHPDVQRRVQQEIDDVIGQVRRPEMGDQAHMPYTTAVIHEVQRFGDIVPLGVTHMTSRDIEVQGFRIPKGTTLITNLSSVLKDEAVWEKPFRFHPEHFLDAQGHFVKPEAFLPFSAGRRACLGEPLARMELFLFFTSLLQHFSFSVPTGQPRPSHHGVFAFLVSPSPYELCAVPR
Experimental: as §1

CYP3A4 = CYP3A4 (Homo sapiens, UniProt P08684); experiment: CYP inhibition assay, CYP3A4; conditions: human liver microsomes 0.25 mg/ml, 10 μM, 15 minutes
Sequence of CYP3A4 (P08684 whole entry): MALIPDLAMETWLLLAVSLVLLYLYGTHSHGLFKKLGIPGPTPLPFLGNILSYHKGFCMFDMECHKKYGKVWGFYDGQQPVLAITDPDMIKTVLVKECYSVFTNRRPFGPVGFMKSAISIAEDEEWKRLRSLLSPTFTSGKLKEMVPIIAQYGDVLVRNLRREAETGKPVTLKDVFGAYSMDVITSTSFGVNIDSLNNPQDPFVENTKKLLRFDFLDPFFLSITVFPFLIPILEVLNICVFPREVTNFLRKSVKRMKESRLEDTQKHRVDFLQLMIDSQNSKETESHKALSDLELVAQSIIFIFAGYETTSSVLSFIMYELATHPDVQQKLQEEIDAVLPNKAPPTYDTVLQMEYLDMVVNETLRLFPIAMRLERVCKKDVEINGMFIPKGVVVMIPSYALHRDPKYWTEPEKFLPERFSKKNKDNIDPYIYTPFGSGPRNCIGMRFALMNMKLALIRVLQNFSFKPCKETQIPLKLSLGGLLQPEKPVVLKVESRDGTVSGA
Experimental: as §1

SMILES: O=C(COc1ccc(C(=O)c2ccccc2)cc1)NC1CCN(Cc2ccccc2)CC1 [DS-43, adiporon]
- AMPK phosphorylation activity (fold change) (AMPK phosphorylation): 1.2 fold change
- CYP inhibition (% of control activity) CYP2C9 (CYP2C9): 57.8 % of control activity
- CYP inhibition (% of control activity) CYP2C19 (CYP2C19): 66.0 % of control activity
- Average DMSO solubility (Solubility test): 43.7 µg/mL
- Plasma stability (% remaining) Rat, 30 m ([1]; 30 m): >100 % remaining
- Plasma stability (% remaining) Rat, 120 m ([1]; 120 m): >100 % remaining
- Plasma stability (% remaining) Human, 30 m ([2]; 30 m): >100 % remaining
- Plasma stability (% remaining) Human, 120 m ([2]; 120 m): >100 % remaining
- Metabolic stability (% remaining) Rat, 30 m [3]: 2.3 % remaining
- Metabolic stability (% remaining) Human, 30 m [4]: 54.9 % remaining
- Metabolic stability (% remaining) Mouse, 30 m [5]: 3.1 % remaining

SMILES: CC(C)C[C@H](NC(=O)CN)C(=O)N[C@@H](Cc1ccc(O)cc1)C(=O)N[C@@H](Cc1ccc(O)cc1)C(=O)N[C@@H](Cc1ccccc1)C(=O)O [APN5, NH2-GLYYF-OH]
- AMPK phosphorylation activity (fold change) (AMPK phosphorylation): 1.0 fold change
- CYP inhibition (% of control activity) CYP1A2 (CYP1A2): 88.8 % of control activity
- CYP inhibition (% of control activity) CYP2C19 (CYP2C19): 98.5 % of control activity
- CYP inhibition (% of control activity) CYP2D6 (CYP2D6): 92.3 % of control activity
- CYP inhibition (% of control activity) CYP3A4 (CYP3A4): 82.9 % of control activity

— US20250051390A1, “NOVEL ADIPONECTIN-DERIVED PEPTOID DERIVATIVE AND USE THEREOF” (SEOUL NATIONAL UNIVERSITY HOSPITAL, priority 2021, published 2025)
